Laboratory results reported in PubChem BioAssay (NCI).
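Exposure lasted 48 hours, with cells grown in 96-well plates and compounds tested at five concentrations. At the GI50, growth is halved. TGI is the concentration that stops growth completely.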

Key:
Test in all cases: growth of human tumour cells (NCI), 48 h
786-0 renal = tested on: 786-0 renal
A498 renal = tested on: A498 renal
A549 NSCLC = tested on: A549 NSCLC
ACHN renal = tested on: ACHN renal
BT-549 breast = tested on: BT-549 breast
CAKI-1 renal = tested on: CAKI-1 renal
CCRF-CEM leukemia = tested on: CCRF-CEM leukemia
COLO 205 colon = tested on: COLO 205 colon
DU-145 prostate = tested on: DU-145 prostate
EKVX NSCLC = tested on: EKVX NSCLC
HCC-2998 colon = tested on: HCC-2998 colon
HCT-116 colon = tested on: HCT-116 colon
HCT-15 colon = tested on: HCT-15 colon
HL-60(TB) leukemia = tested on: HL-60(TB) leukemia
HOP-62 NSCLC = tested on: HOP-62 NSCLC
HOP-92 NSCLC = tested on: HOP-92 NSCLC
HS 578T breast = tested on: HS 578T breast
HT29 colon = tested on: HT29 colon
IGROV1 ovarian = tested on: IGROV1 ovarian
K-562 leukemia = tested on: K-562 leukemia
KM12 colon = tested on: KM12 colon
LOX IMVI melanoma = tested on: LOX IMVI melanoma
M14 melanoma = tested on: M14 melanoma
MALME-3M melanoma = tested on: MALME-3M melanoma
MCF7 breast = tested on: MCF7 breast
MDA-MB-231 breast = tested on: MDA-MB-231 breast
MDA-MB-435 = tested on: MDA-MB-435
MDA-MB-468 breast = tested on: MDA-MB-468 breast
MOLT-4 leukemia = tested on: MOLT-4 leukemia
NCI-H226 lung = tested on: NCI-H226 lung
NCI-H23 lung = tested on: NCI-H23 lung
NCI-H460 lung = tested on: NCI-H460 lung
NCI-H522 lung = tested on: NCI-H522 lung
NCI/ADR-RES ovarian = tested on: NCI/ADR-RES ovarian
OVCAR-3 ovarian = tested on: OVCAR-3 ovarian
OVCAR-4 ovarian = tested on: OVCAR-4 ovarian
OVCAR-5 ovarian = tested on: OVCAR-5 ovarian
OVCAR-8 ovarian = tested on: OVCAR-8 ovarian
PC-3 prostate = tested on: PC-3 prostate
RPMI-8226 leukemia = tested on: RPMI-8226 leukemia
RXF 393 renal = tested on: RXF 393 renal
SF-268 CNS = tested on: SF-268 CNS
SF-295 CNS = tested on: SF-295 CNS
SF-539 CNS = tested on: SF-539 CNS
SK-MEL-2 melanoma = tested on: SK-MEL-2 melanoma
SK-MEL-28 melanoma = tested on: SK-MEL-28 melanoma
SK-MEL-5 melanoma = tested on: SK-MEL-5 melanoma
SK-OV-3 ovarian = tested on: SK-OV-3 ovarian
SN12C renal = tested on: SN12C renal
SNB-19 CNS = tested on: SNB-19 CNS
SNB-75 CNS = tested on: SNB-75 CNS
SW-620 colon = tested on: SW-620 colon
T-47D breast = tested on: T-47D breast
TK-10 renal = tested on: TK-10 renal
U251 CNS = tested on: U251 CNS
UACC-257 melanoma = tested on: UACC-257 melanoma
UACC-62 melanoma = tested on: UACC-62 melanoma
UO-31 renal = tested on: UO-31 renal

CN(C)c1nc(NCCNS(=O)(=O)c2ccc(C(=O)/C=C/c3ccc(Cl)cc3)cc2)nc(Nc2ccc(F)cc2)n1 was tested, and the GI50 (786-0 renal) was 7.28 µM, the TGI (786-0 renal) was 20.2 µM and the GI50 (A498 renal) was 10.5 µM. For the same compound, the TGI (A498 renal) was 23.1 µM, the GI50 (A549 NSCLC) was 4.52 µM and the TGI (A549 NSCLC) was 17.4 µM. It also gave a GI50 (ACHN renal) of 4.2 µM, a TGI (ACHN renal) of 15.3 µM and a GI50 (BT-549 breast) of 11.6 µM. The TGI (BT-549 breast) was 23.9 µM, the GI50 (CAKI-1 renal) was 4.93 µM and the TGI (CAKI-1 renal) was 19.5 µM. For the same compound, the GI50 (CCRF-CEM leukemia) was 3.75 µM, the TGI (CCRF-CEM leukemia) was over 100 µM and the GI50 (COLO 205 colon) was 5.96 µM. It also gave a TGI (COLO 205 colon) of 18.7 µM, a GI50 (DU-145 prostate) of 9.7 µM and a TGI (DU-145 prostate) of 21.8 µM. The GI50 (EKVX NSCLC) was 3.11 µM, the TGI (EKVX NSCLC) was 14.7 µM and the GI50 (HCC-2998 colon) was 2.48 µM. It also gave a TGI (HCC-2998 colon) of 6.9 µM, a GI50 (HCT-116 colon) of 1.66 µM and a TGI (HCT-116 colon) of 3.11 µM. It also gave a GI50 (HCT-15 colon) of 4.62 µM, a TGI (HCT-15 colon) of 16.9 µM and a GI50 (HL-60(TB) leukemia) of 4.39 µM. It also gave a TGI (HL-60(TB) leukemia) of over 100 µM, a GI50 (HOP-62 NSCLC) of 12.5 µM and a TGI (HOP-62 NSCLC) of 27.5 µM. It also gave a GI50 (HOP-92 NSCLC) of 3.83 µM, a TGI (HOP-92 NSCLC) of 14.7 µM and a GI50 (HS 578T breast) of 11.4 µM. For the same compound, the TGI (HS 578T breast) was 58.1 µM, the GI50 (HT29 colon) was 2.15 µM and the TGI (HT29 colon) was 5.72 µM. For the same compound, the GI50 (IGROV1 ovarian) was 8.58 µM, the TGI (IGROV1 ovarian) was 21.4 µM and the GI50 (K-562 leukemia) was 3.29 µM. It also gave a TGI (K-562 leukemia) of over 100 µM, a GI50 (KM12 colon) of 2.97 µM and a TGI (KM12 colon) of 9.11 µM. It also gave a GI50 (LOX IMVI melanoma) of 2.74 µM, a TGI (LOX IMVI melanoma) of 9.16 µM and a GI50 (M14 melanoma) of 4.14 µM. For the same compound, the TGI (M14 melanoma) was 15.3 µM, the GI50 (MALME-3M melanoma) was 12.8 µM and the TGI (MALME-3M melanoma) was 26.4 µM. For the same compound, the GI50 (MCF7 breast) was 2.28 µM, the TGI (MCF7 breast) was 6.33 µM and the GI50 (MDA-MB-231 breast) was 4.72 µM. The TGI (MDA-MB-231 breast) was 17.4 µM, the GI50 (MDA-MB-435) was 3.8 µM and the TGI (MDA-MB-435) was 14 µM. The GI50 (MDA-MB-468 breast) was 3.71 µM, the TGI (MDA-MB-468 breast) was 14.8 µM and the GI50 (MOLT-4 leukemia) was 3.07 µM. It also gave a TGI (MOLT-4 leukemia) of over 100 µM, a GI50 (NCI-H226 lung) of 6.14 µM and a TGI (NCI-H226 lung) of 24.3 µM. It also gave a GI50 (NCI-H23 lung) of 10.7 µM, a TGI (NCI-H23 lung) of 23.4 µM and a GI50 (NCI-H460 lung) of 3.38 µM. For the same compound, the TGI (NCI-H460 lung) was 13.8 µM, the GI50 (NCI-H522 lung) was 7.1 µM and the TGI (NCI-H522 lung) was 22 µM. The GI50 (NCI/ADR-RES ovarian) was 5.49 µM, the TGI (NCI/ADR-RES ovarian) was 18.4 µM and the GI50 (OVCAR-3 ovarian) was 3.16 µM. For the same compound, the TGI (OVCAR-3 ovarian) was 11.9 µM, the GI50 (OVCAR-4 ovarian) was 5.92 µM and the TGI (OVCAR-4 ovarian) was 22 µM. For the same compound, the GI50 (OVCAR-5 ovarian) was 10.7 µM, the TGI (OVCAR-5 ovarian) was 22.6 µM and the GI50 (OVCAR-8 ovarian) was 10.2 µM. The TGI (OVCAR-8 ovarian) was 23.7 µM, the GI50 (PC-3 prostate) was 3.74 µM and the TGI (PC-3 prostate) was 14.1 µM. The GI50 (RPMI-8226 leukemia) was 2.47 µM, the TGI (RPMI-8226 leukemia) was 7.11 µM and the GI50 (RXF 393 renal) was 3.09 µM. It also gave a TGI (RXF 393 renal) of 15.1 µM, a GI50 (SF-268 CNS) of 6.21 µM and a TGI (SF-268 CNS) of 23.5 µM. For the same compound, the GI50 (SF-295 CNS) was 6.11 µM, the TGI (SF-295 CNS) was 19.8 µM and the GI50 (SF-539 CNS) was 10.1 µM. For the same compound, the TGI (SF-539 CNS) was 22 µM, the GI50 (SK-MEL-2 melanoma) was 5.47 µM and the TGI (SK-MEL-2 melanoma) was 19.5 µM. For the same compound, the GI50 (SK-MEL-28 melanoma) was 6.77 µM, the TGI (SK-MEL-28 melanoma) was 20.1 µM and the GI50 (SK-MEL-5 melanoma) was 5.89 µM. It also gave a TGI (SK-MEL-5 melanoma) of 18.8 µM, a GI50 (SK-OV-3 ovarian) of 11.5 µM and a TGI (SK-OV-3 ovarian) of 27.7 µM. It also gave a GI50 (SN12C renal) of 3.79 µM, a TGI (SN12C renal) of 15.9 µM and a GI50 (SNB-19 CNS) of 9.18 µM. The TGI (SNB-19 CNS) was 21.3 µM, the GI50 (SNB-75 CNS) was 5.6 µM and the TGI (SNB-75 CNS) was 25.7 µM. For the same compound, the GI50 (SW-620 colon) was 2.78 µM, the TGI (SW-620 colon) was 11 µM and the GI50 (T-47D breast) was 4.37 µM. The TGI (T-47D breast) was 18 µM, the GI50 (TK-10 renal) was 11.7 µM and the TGI (TK-10 renal) was 30.3 µM. The GI50 (U251 CNS) was 5.25 µM, the TGI (U251 CNS) was 18.6 µM and the GI50 (UACC-257 melanoma) was 8.36 µM. For the same compound, the TGI (UACC-257 melanoma) was 21.8 µM, the GI50 (UACC-62 melanoma) was 5.41 µM and the TGI (UACC-62 melanoma) was 18.7 µM. The GI50 (UO-31 renal) was 4 µM and the TGI (UO-31 renal) was 16.6 µM.
